Source: US9074014B2 (Ipsen Pharma S.A.S., priority 2008, dated 2015)
Where a SMILES comes first, the peptide text is derived from it. [ ]: non-standard residue; d: D form. Nle = CCCC[C@H](N)C(=O)O; Ac5c = NC1(C(=O)O)CCCC1

Experiments:
[1] = Human plasma half-life assay; type: in vitro ADME; settings: human plasma, 37° C., LC-MS; read-out: Human Plasma T½ (converted)
[2] = biological target: T1, human recombinant GIP receptor (Homo sapiens, UniProt P48546); assay: In vitro hGIP receptor binding assay ([125I]GIP displacement, CHO-K1 membranes)
T1 construct: expressed in transfected cells; host or cells: CHO-K1 clonal cells (membranes)
T1 sequence (P48546 22-466): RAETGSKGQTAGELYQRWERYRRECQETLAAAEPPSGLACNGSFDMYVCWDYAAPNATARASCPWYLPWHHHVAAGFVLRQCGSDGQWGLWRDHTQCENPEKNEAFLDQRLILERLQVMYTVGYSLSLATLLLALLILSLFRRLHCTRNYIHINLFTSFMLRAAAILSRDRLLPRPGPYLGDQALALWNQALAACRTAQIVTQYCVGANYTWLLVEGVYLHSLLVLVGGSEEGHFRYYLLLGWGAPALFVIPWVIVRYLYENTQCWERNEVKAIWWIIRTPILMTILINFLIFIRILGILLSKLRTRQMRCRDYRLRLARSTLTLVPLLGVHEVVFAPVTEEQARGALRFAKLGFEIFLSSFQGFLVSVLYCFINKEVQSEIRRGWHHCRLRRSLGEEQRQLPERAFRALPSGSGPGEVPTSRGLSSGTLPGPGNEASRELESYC
From the text: A. In Vitro hGIP Receptor Binding Assay

[3] = Rat plasma half-life assay; type: in vitro ADME; settings: rat plasma, 37° C., LC-MS; read-out: Rat Plasma T½ (converted)

Structure (SMILES)	half-life at 0.1 mg/ml [1] [h]	Ki [2] [nM]	half-life at 0.1 mg/ml [3] [h]
CCCC[C@H](NC(=O)C(C)(C)NC(=O)[C@@H](NC(=O)[C@H](CO)NC(=O)[C@H](Cc1ccc(O)cc1)NC(=O)[C@H](CC(=O)O)NC(=O)[C@H](CO)NC(=O)[C@@H](NC(=O)[C@H](Cc1ccccc1)NC(=O)[C@@H](NC(=O)CNC(=O)[C@H](CCC(=O)O)NC(=O)C(C)(C)NC(=O)[C@@H](N)Cc1ccc(O)cc1)[C@@H](C)O)[C@@H](C)CC)[C@@H](C)CC)C(=O)N[C@@H](CC(=O)O)C(=O)N[C@@H](CCCCN)C(=O)N[C@H](C(=O)N[C@@H](Cc1c[nH]cn1)C(=O)N[C@@H](CCC(N)=O)C(=O)N[C@@H](CCC(N)=O)C(=O)N[C@@H](CC(=O)O)C(=O)N[C@@H](Cc1ccccc1)C(=O)N[C@H](C(=O)N[C@@H](CC(N)=O)C(=O)N[C@@H](Cc1c[nH]c2ccccc12)C(=O)N[C@@H](CC(C)C)C(=O)N[C@@H](CC(C)C)C(=O)N[C@@H](C)C(=O)N[C@@H](CCC(N)=O)C(=O)N[C@@H](CCCCN)C(=O)NCC(=O)N[C@@H](CCCCN)C(=O)N[C@@H](CCCCN)C(=O)N[C@@H](CC(N)=O)C(=O)N[C@@H](CC(=O)O)C(=O)N[C@@H](Cc1c[nH]c2ccccc12)C(=O)N[C@@H](CCCCN)C(=O)N[C@@H](Cc1c[nH]cn1)C(=O)N[C@@H](CC(N)=O)C(=O)N[C@H](C(=O)N[C@H](C(=O)N[C@@H](CCC(N)=O)C(=O)O)[C@@H](C)O)[C@@H](C)CC)C(C)C)[C@@H](C)CC [Example 57, (Aib^2, 13, Nle^14)hGIP(1-42)-OH]	30.5	0.05	13.8
CC[C@H](C)[C@H](NC(=O)[C@H](CCCCN)NC(=O)[C@H](CC(=O)O)NC(=O)[C@H](CCSC)NC(=O)C(C)(C)NC(=O)[C@@H](NC(=O)[C@H](CO)NC(=O)[C@H](Cc1ccc(O)cc1)NC(=O)[C@H](CC(=O)O)NC(=O)[C@H](CO)NC(=O)[C@@H](NC(=O)[C@H](Cc1ccccc1)NC(=O)[C@@H](NC(=O)CNC(=O)[C@H](CCC(=O)O)NC(=O)C(C)(C)NC(=O)[C@@H](N)Cc1ccc(O)cc1)[C@@H](C)O)[C@@H](C)CC)[C@@H](C)CC)C(=O)N[C@@H](Cc1c[nH]cn1)C(=O)N[C@@H](CCC(N)=O)C(=O)N[C@@H](CCC(N)=O)C(=O)N[C@@H](CC(=O)O)C(=O)N[C@@H](Cc1ccccc1)C(=O)N[C@H](C(=O)N[C@@H](CC(N)=O)C(=O)N[C@@H](Cc1c[nH]c2ccccc12)C(=O)N[C@@H](CC(C)C)C(=O)N[C@@H](CC(C)C)C(=O)N[C@@H](C)C(=O)N[C@@H](CCC(N)=O)C(=O)N[C@@H](CCCCN)C(=O)NCC(=O)N[C@@H](CCCCN)C(=O)N[C@@H](CCCCN)C(=O)N[C@@H](CC(N)=O)C(=O)N[C@@H](CC(=O)O)C(=O)N[C@@H](Cc1c[nH]c2ccccc12)C(=O)N[C@@H](CCCCN)C(=O)N[C@@H](Cc1c[nH]cn1)C(=O)N[C@@H](CC(N)=O)C(=O)N[C@H](C(=O)N[C@H](C(=O)N[C@@H](CCC(N)=O)C(=O)O)[C@@H](C)O)[C@@H](C)CC)C(C)C [Example 60, (Aib^2, 13)hGIP(1-42)-OH]	26	0.05	10.5
CCCC[C@H](NC(=O)[C@H](C)NC(=O)[C@@H](NC(=O)C1(NC(=O)[C@H](Cc2ccc(O)cc2)NC(=O)[C@H](CC(=O)O)NC(=O)[C@H](CO)NC(=O)[C@@H](NC(=O)[C@H](Cc2ccccc2)NC(=O)[C@@H](NC(=O)CNC(=O)[C@@H]2CCCN2C(=O)[C@H](C)NC(=O)[C@@H](N)Cc2ccc(O)cc2)[C@@H](C)O)[C@@H](C)CC)CCCC1)[C@@H](C)CC)C(=O)N[C@@H](CC(=O)O)C(=O)N[C@@H](CCCCN)C(=O)N[C@H](C(=O)N[C@@H](Cc1c[nH]cn1)C(=O)N[C@@H](CCC(N)=O)C(=O)N[C@@H](CCC(N)=O)C(=O)N[C@@H](CC(=O)O)C(=O)N[C@@H](Cc1ccccc1)C(=O)N[C@H](C(=O)N[C@@H](CC(N)=O)C(=O)N[C@@H](Cc1c[nH]c2ccccc12)C(=O)N[C@@H](CC(C)C)C(=O)N[C@@H](CC(C)C)C(=O)N[C@@H](C)C(=O)N[C@@H](CCC(N)=O)C(=O)N[C@@H](CCCCN)C(=O)O)C(C)C)[C@@H](C)CC [Example 92, (Pro^3, A5c^11, Nle^14)hGIP(1-30)-OH] (H-YAPGTFISDY[Ac5c]IA[Nle]DKIHQQDFVNWLLAQK-OH; N-terminus and C-terminus assumed)	12	86.8	1.6
